Assay results reported in a compilation of properties of binary mixtures (doi:10.1016/j.molliq.2015.08.019).

Assay: xn = mol fraction of the nth substance listed
Details: 100 kPa

CN1CCCC1=O + CCCC[n+]1ccn(C)c1.F[B-](F)(F)F
x1 = 1
Details | speed of sound [m/s]
298.15 K | 1543.8
303.15 K | 1524.3
308.15 K | 1505
313.15 K | 1485.7
318.15 K | 1466.7

CCCC[n+]1ccn(C)c1.F[B-](F)(F)F + CN1CCCC1=O
speed of sound [m/s]
Details | x2 = 0.108 | x2 = 0.2114 | x2 = 0.3061 | x2 = 0.4422 | x2 = 0.5097 | x2 = 0.6155 | x2 = 0.7054 | x2 = 0.8025 | x2 = 0.9025
298.15 K | – | – | – | 1562.8 | 1562 | 1561.2 | – | 1559.1 | 1554.8
303.15 K | 1552.4 | 1552.2 | 1551.5 | 1549.9 | 1548.1 | – | 1544.1 | – | 1536.3
308.15 K | – | 1539.8 | – | 1536.6 | 1534.6 | 1531.5 | – | 1524.7 | 1518
313.15 K | 1528.3 | – | – | 1522.7 | 1520.8 | – | – | 1507 | –
318.15 K | 1516.4 | – | 1512.8 | 1510.1 | 1506.8 | 1501.7 | 1496.4 | 1490.4 | 1482.5
323.15 K | – | 1502.8 | 1499.9 | 1496.7 | 1492.4 | 1486.5 | 1480.7 | 1473.2 | 1464.1
